Experimental data reported in BigSolDB 2.1.

Nc1nc2ccc(OC(F)(F)F)cc2s1
solubility (mole fraction) (in 2-methoxyethanol, 278.15 K): 0.383 | solubility (mole fraction) (in 2-methoxyethanol, 283.15 K): 0.398 | solubility (mole fraction) (in 2-methoxyethanol, 288.15 K): 0.405 | solubility (mole fraction) (in 2-methoxyethanol, 293.15 K): 0.419 | solubility (mole fraction) (in 2-methoxyethanol, 298.15 K): 0.428 | solubility (mole fraction) (in 2-methoxyethanol, 303.15 K): 0.436 | solubility (mole fraction) (in 2-methoxyethanol, 308.15 K): 0.449 | solubility (mole fraction) (in 2-methoxyethanol, 313.15 K): 0.459 | solubility (mole fraction) (in 2-methoxyethanol, 318.15 K): 0.469 | solubility (mole fraction) (in 2-methoxyethanol, 323.15 K): 0.478 | solubility (mole fraction) (in 2-propoxyethanol, 278.15 K): 0.449 | solubility (mole fraction) (in 2-propoxyethanol, 283.15 K): 0.461 | solubility (mole fraction) (in 2-propoxyethanol, 288.15 K): 0.469 | solubility (mole fraction) (in 2-propoxyethanol, 293.15 K): 0.485 | solubility (mole fraction) (in 2-propoxyethanol, 298.15 K): 0.496 | solubility (mole fraction) (in 2-propoxyethanol, 303.15 K): 0.504 | solubility (mole fraction) (in 2-propoxyethanol, 308.15 K): 0.514 | solubility (mole fraction) (in 2-propoxyethanol, 313.15 K): 0.521 | solubility (mole fraction) (in 2-propoxyethanol, 318.15 K): 0.53 | solubility (mole fraction) (in 2-propoxyethanol, 323.15 K): 0.538 | solubility (mole fraction) (in DMAc, 278.15 K): 0.0878 | solubility (mole fraction) (in DMAc, 283.15 K): 0.0968 | solubility (mole fraction) (in DMAc, 288.15 K): 0.106 | solubility (mole fraction) (in DMAc, 293.15 K): 0.116 | solubility (mole fraction) (in DMAc, 298.15 K): 0.129 | solubility (mole fraction) (in DMAc, 303.15 K): 0.142 | solubility (mole fraction) (in DMAc, 308.15 K): 0.156 | solubility (mole fraction) (in DMAc, 313.15 K): 0.17 | solubility (mole fraction) (in DMAc, 318.15 K): 0.188 | solubility (mole fraction) (in DMAc, 323.15 K): 0.203 | solubility (mole fraction) (in acetone, 278.15 K): 0.371 | solubility (mole fraction) (in acetone, 283.15 K): 0.379 | solubility (mole fraction) (in acetone, 288.15 K): 0.387 | solubility (mole fraction) (in acetone, 293.15 K): 0.401 | solubility (mole fraction) (in acetone, 298.15 K): 0.414 | solubility (mole fraction) (in acetone, 303.15 K): 0.425 | solubility (mole fraction) (in acetone, 308.15 K): 0.437 | solubility (mole fraction) (in acetone, 313.15 K): 0.449 | solubility (mole fraction) (in acetone, 318.15 K): 0.464 | solubility (mole fraction) (in acetone, 323.15 K): 0.477 | solubility (mole fraction) (in acetonitrile, 278.15 K): 0.156 | solubility (mole fraction) (in acetonitrile, 283.15 K): 0.176 | solubility (mole fraction) (in acetonitrile, 288.15 K): 0.197 | solubility (mole fraction) (in acetonitrile, 293.15 K): 0.216 | solubility (mole fraction) (in acetonitrile, 298.15 K): 0.245 | solubility (mole fraction) (in acetonitrile, 303.15 K): 0.267 | solubility (mole fraction) (in acetonitrile, 308.15 K): 0.302 | solubility (mole fraction) (in acetonitrile, 313.15 K): 0.336 | solubility (mole fraction) (in acetonitrile, 318.15 K): 0.365 | solubility (mole fraction) (in acetonitrile, 323.15 K): 0.387 | solubility (mole fraction) (in ethanol, 278.15 K): 0.179 | solubility (mole fraction) (in ethanol, 283.15 K): 0.188 | solubility (mole fraction) (in ethanol, 288.15 K): 0.198 | solubility (mole fraction) (in ethanol, 293.15 K): 0.212 | solubility (mole fraction) (in ethanol, 298.15 K): 0.222 | solubility (mole fraction) (in ethanol, 303.15 K): 0.236 | solubility (mole fraction) (in ethanol, 308.15 K): 0.254 | solubility (mole fraction) (in ethanol, 313.15 K): 0.273 | solubility (mole fraction) (in ethanol, 318.15 K): 0.294 | solubility (mole fraction) (in ethanol, 323.15 K): 0.308 | solubility (mole fraction) (in isopropyl acetate, 278.15 K): 0.331 | solubility (mole fraction) (in isopropyl acetate, 283.15 K): 0.341 | solubility (mole fraction) (in isopropyl acetate, 288.15 K): 0.351 | solubility (mole fraction) (in isopropyl acetate, 293.15 K): 0.361 | solubility (mole fraction) (in isopropyl acetate, 298.15 K): 0.376 | solubility (mole fraction) (in isopropyl acetate, 303.15 K): 0.386 | solubility (mole fraction) (in isopropyl acetate, 308.15 K): 0.395 | solubility (mole fraction) (in isopropyl acetate, 313.15 K): 0.411 | solubility (mole fraction) (in isopropyl acetate, 318.15 K): 0.43 | solubility (mole fraction) (in isopropyl acetate, 323.15 K): 0.443 | solubility (mole fraction) (in n-butanol, 278.15 K): 0.185 | solubility (mole fraction) (in n-butanol, 283.15 K): 0.197 | solubility (mole fraction) (in n-butanol, 288.15 K): 0.207 | solubility (mole fraction) (in n-butanol, 293.15 K): 0.221 | solubility (mole fraction) (in n-butanol, 298.15 K): 0.236 | solubility (mole fraction) (in n-butanol, 303.15 K): 0.254 | solubility (mole fraction) (in n-butanol, 308.15 K): 0.268 | solubility (mole fraction) (in n-butanol, 313.15 K): 0.288 | solubility (mole fraction) (in n-butanol, 318.15 K): 0.313 | solubility (mole fraction) (in n-butanol, 323.15 K): 0.337 | solubility (mole fraction) (in n-pentanol, 278.15 K): 0.197 | solubility (mole fraction) (in n-pentanol, 283.15 K): 0.205 | solubility (mole fraction) (in n-pentanol, 288.15 K): 0.216 | solubility (mole fraction) (in n-pentanol, 293.15 K): 0.231 | solubility (mole fraction) (in n-pentanol, 298.15 K): 0.249 | solubility (mole fraction) (in n-pentanol, 303.15 K): 0.264 | solubility (mole fraction) (in n-pentanol, 308.15 K): 0.281 | solubility (mole fraction) (in n-pentanol, 313.15 K): 0.303 | solubility (mole fraction) (in n-pentanol, 318.15 K): 0.325 | solubility (mole fraction) (in n-pentanol, 323.15 K): 0.342 | solubility (mole fraction) (in n-pentyl acetate, 278.15 K): 0.348 | solubility (mole fraction) (in n-pentyl acetate, 283.15 K): 0.356 | solubility (mole fraction) (in n-pentyl acetate, 288.15 K): 0.365 | solubility (mole fraction) (in n-pentyl acetate, 293.15 K): 0.374 | solubility (mole fraction) (in n-pentyl acetate, 298.15 K): 0.385 | solubility (mole fraction) (in n-pentyl acetate, 303.15 K): 0.395 | solubility (mole fraction) (in n-pentyl acetate, 308.15 K): 0.408 | solubility (mole fraction) (in n-pentyl acetate, 313.15 K): 0.425 | solubility (mole fraction) (in n-pentyl acetate, 318.15 K): 0.439 | solubility (mole fraction) (in n-pentyl acetate, 323.15 K): 0.46 | solubility (mole fraction) (in n-propanol, 278.15 K): 0.179 | solubility (mole fraction) (in n-propanol, 283.15 K): 0.189 | solubility (mole fraction) (in n-propanol, 288.15 K): 0.202 | solubility (mole fraction) (in n-propanol, 293.15 K): 0.215 | solubility (mole fraction) (in n-propanol, 298.15 K): 0.23 | solubility (mole fraction) (in n-propanol, 303.15 K): 0.249 | solubility (mole fraction) (in n-propanol, 308.15 K): 0.267 | solubility (mole fraction) (in n-propanol, 313.15 K): 0.287 | solubility (mole fraction) (in n-propanol, 318.15 K): 0.312 | solubility (mole fraction) (in n-propanol, 323.15 K): 0.333 | solubility (mole fraction) (in n-propyl acetate, 278.15 K): 0.349 | solubility (mole fraction) (in n-propyl acetate, 283.15 K): 0.36 | solubility (mole fraction) (in n-propyl acetate, 288.15 K): 0.368 | solubility (mole fraction) (in n-propyl acetate, 293.15 K): 0.377 | solubility (mole fraction) (in n-propyl acetate, 298.15 K): 0.389 | solubility (mole fraction) (in n-propyl acetate, 303.15 K): 0.398 | solubility (mole fraction) (in n-propyl acetate, 308.15 K): 0.414 | solubility (mole fraction) (in n-propyl acetate, 313.15 K): 0.429 | solubility (mole fraction) (in n-propyl acetate, 318.15 K): 0.446 | solubility (mole fraction) (in n-propyl acetate, 323.15 K): 0.463
